Experimental data: ChEMBL document CHEMBL4507257, “Data for DCP probe ABT-100” (2021)

Experiments:
[1] = system: Tyrosine-protein kinase ABL1 (Homo sapiens), P00519 [H396P]; conditions: Compound concentration 1000.0 nM
[2] = system: Tyrosine-protein kinase ABL1 (Homo sapiens), P00519 [Q252H]; conditions: Compound concentration 1000.0 nM
[3] = biological target: Activin receptor type-2A (Homo sapiens) (UniProt P27037); conditions: Compound concentration 1000.0 nM
[4] = biological target: RAC-alpha serine/threonine-protein kinase (Homo sapiens) (UniProt P31749); conditions: Compound concentration 1000.0 nM
[5] = biological target: Cyclin-dependent kinase 7 (Homo sapiens, UniProt P50613); conditions: Compound concentration 1000.0 nM
[6] = biological target: Dual specificity protein kinase CLK4 (Homo sapiens) (UniProt Q9HAZ1); conditions: Compound concentration 1000.0 nM
[7] = biological target: Serine/threonine-protein kinase 17B (Homo sapiens) (UniProt O94768); conditions: Compound concentration 1000.0 nM
Sequence of Serine/threonine-protein kinase 17B (Homo sapiens) (O94768 whole entry): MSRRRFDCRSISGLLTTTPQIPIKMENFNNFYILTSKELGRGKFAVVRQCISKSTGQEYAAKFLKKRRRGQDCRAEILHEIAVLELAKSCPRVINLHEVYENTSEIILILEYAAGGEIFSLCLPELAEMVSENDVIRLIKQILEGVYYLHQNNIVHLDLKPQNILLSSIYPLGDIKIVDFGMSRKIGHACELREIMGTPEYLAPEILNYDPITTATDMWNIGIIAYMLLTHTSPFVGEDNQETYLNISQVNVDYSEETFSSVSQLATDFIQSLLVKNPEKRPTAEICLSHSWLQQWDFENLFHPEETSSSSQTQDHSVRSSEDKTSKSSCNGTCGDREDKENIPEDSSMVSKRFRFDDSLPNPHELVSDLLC

[8] = system: Epidermal growth factor receptor (Homo sapiens), P00533 [UNDEFINED MUTATION]; conditions: Compound concentration 1000.0 nM
[9] = biological target: Eukaryotic translation initiation factor 2-alpha kinase 1 (Homo sapiens) (UniProt Q9BQI3); conditions: Compound concentration 1000.0 nM
[10] = biological target: Ephrin type-A receptor 2 (Homo sapiens) (UniProt P29317); conditions: Compound concentration 1000.0 nM
[11] = biological target: Ephrin type-A receptor 4 (Homo sapiens) (UniProt P54764); conditions: Compound concentration 1000.0 nM
[12] = biological target: Ephrin type-B receptor 6 (Homo sapiens) (UniProt O15197); conditions: Compound concentration 1000.0 nM
[13] = system: Receptor-type tyrosine-protein kinase FLT3 (Homo sapiens), P36888 [D835Y]; conditions: Compound concentration 1000.0 nM
[14] = biological target: Cyclin-G-associated kinase (Homo sapiens) (UniProt O14976); conditions: Compound concentration 1000.0 nM
[15] = biological target: Glycogen synthase kinase-3 beta (Homo sapiens) (UniProt P49841); conditions: Compound concentration 1000.0 nM
[16] = biological target: Homeodomain-interacting protein kinase 3 (Homo sapiens) (UniProt Q9H422); conditions: Compound concentration 1000.0 nM
[17] = biological target: Hormonally up-regulated neu tumor-associated kinase (Homo sapiens) (UniProt P57058); conditions: Compound concentration 1000.0 nM
[18] = biological target: Mast/stem cell growth factor receptor Kit (Homo sapiens) (UniProt P10721); conditions: Compound concentration 1000.0 nM
Sequence of Mast/stem cell growth factor receptor Kit (Homo sapiens) (P10721 whole entry, the tested form may be a part): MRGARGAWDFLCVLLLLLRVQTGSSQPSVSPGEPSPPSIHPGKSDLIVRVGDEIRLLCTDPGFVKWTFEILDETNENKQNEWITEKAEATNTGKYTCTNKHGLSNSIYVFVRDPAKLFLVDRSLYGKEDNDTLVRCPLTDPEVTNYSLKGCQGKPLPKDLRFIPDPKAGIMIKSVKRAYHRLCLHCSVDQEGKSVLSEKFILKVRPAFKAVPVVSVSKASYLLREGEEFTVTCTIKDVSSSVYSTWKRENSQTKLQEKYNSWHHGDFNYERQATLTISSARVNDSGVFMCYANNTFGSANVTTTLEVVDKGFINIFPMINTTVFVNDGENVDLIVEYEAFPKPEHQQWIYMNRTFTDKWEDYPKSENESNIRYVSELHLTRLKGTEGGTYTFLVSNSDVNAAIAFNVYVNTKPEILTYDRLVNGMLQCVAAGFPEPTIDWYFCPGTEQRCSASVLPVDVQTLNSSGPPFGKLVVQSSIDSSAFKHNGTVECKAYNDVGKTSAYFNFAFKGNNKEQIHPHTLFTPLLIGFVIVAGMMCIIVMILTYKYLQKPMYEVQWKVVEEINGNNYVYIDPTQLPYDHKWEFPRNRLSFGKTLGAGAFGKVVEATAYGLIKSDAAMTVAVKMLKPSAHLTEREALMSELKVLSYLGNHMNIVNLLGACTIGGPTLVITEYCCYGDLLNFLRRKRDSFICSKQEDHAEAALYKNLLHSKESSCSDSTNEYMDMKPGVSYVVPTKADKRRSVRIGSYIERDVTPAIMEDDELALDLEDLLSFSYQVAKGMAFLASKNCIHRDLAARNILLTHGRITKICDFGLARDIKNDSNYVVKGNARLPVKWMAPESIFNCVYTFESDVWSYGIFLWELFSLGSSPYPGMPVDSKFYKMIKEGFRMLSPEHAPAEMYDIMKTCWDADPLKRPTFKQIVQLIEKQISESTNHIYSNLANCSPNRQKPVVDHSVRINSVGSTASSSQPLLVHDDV

[19] = biological target: LIM domain kinase 1 (Homo sapiens) (UniProt P53667); conditions: Compound concentration 1000.0 nM
[20] = system: Leucine-rich repeat serine/threonine-protein kinase 2 (Homo sapiens), Q5S007 [G2019S]; conditions: Compound concentration 1000.0 nM
[21] = biological target: Mitogen-activated protein kinase kinase kinase 4 (Homo sapiens) (UniProt Q9Y6R4); conditions: Compound concentration 1000.0 nM
[22] = biological target: Mitogen-activated protein kinase kinase kinase kinase 2 (Homo sapiens) (UniProt Q12851); conditions: Compound concentration 1000.0 nM
[23] = biological target: Mitogen-activated protein kinase kinase kinase kinase 5 (Homo sapiens) (UniProt Q9Y4K4); conditions: Compound concentration 1000.0 nM
[24] = biological target: Mitogen-activated protein kinase kinase kinase 9 (Homo sapiens) (UniProt P80192); conditions: Compound concentration 1000.0 nM
Sequence of Mitogen-activated protein kinase kinase kinase 9 (Homo sapiens) (P80192 whole entry, looked up): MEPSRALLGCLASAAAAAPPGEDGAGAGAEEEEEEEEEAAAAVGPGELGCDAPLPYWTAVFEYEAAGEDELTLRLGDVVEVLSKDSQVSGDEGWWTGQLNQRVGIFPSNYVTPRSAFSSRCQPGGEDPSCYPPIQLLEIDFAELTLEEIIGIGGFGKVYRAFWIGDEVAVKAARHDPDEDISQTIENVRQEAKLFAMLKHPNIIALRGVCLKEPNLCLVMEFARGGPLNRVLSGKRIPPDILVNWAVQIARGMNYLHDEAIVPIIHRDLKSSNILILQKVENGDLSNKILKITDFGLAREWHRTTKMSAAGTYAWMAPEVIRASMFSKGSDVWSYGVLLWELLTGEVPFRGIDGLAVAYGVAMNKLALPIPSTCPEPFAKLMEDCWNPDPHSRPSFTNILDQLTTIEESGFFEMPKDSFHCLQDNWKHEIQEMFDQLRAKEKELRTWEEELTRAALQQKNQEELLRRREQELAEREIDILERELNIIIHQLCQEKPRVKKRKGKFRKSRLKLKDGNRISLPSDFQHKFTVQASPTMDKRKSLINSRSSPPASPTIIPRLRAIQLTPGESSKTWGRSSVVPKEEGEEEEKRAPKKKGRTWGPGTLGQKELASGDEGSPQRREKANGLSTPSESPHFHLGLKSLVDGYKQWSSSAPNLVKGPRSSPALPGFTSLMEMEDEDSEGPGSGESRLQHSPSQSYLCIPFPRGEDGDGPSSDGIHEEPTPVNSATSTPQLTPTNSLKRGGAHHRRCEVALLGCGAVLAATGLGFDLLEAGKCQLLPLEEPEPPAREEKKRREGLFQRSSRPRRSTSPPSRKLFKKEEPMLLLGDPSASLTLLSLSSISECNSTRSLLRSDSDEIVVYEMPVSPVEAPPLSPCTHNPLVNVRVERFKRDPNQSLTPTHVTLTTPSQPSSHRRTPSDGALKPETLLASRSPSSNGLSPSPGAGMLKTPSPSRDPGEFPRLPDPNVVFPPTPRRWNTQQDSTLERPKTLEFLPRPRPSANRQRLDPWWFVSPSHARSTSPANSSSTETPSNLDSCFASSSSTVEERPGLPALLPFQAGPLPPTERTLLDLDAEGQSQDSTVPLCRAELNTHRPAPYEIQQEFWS

[25] = biological target: Serine/threonine-protein kinase mTOR (Homo sapiens) (UniProt P42345); conditions: Compound concentration 1000.0 nM
[26] = biological target: Myosin-IIIb (Homo sapiens) (UniProt Q8WXR4); conditions: Compound concentration 1000.0 nM
[27] = biological target: Serine/threonine-protein kinase 38-like (Homo sapiens) (UniProt Q9Y2H1); conditions: Compound concentration 1000.0 nM
[28] = biological target: Serine/threonine-protein kinase OSR1 (Homo sapiens) (UniProt O95747); conditions: Compound concentration 1000.0 nM
[29] = biological target: Cyclin-dependent kinase 18 (Homo sapiens) (UniProt Q07002); conditions: Compound concentration 1000.0 nM
Sequence of Cyclin-dependent kinase 18 (Homo sapiens) (Q07002 whole entry, canonical isoform): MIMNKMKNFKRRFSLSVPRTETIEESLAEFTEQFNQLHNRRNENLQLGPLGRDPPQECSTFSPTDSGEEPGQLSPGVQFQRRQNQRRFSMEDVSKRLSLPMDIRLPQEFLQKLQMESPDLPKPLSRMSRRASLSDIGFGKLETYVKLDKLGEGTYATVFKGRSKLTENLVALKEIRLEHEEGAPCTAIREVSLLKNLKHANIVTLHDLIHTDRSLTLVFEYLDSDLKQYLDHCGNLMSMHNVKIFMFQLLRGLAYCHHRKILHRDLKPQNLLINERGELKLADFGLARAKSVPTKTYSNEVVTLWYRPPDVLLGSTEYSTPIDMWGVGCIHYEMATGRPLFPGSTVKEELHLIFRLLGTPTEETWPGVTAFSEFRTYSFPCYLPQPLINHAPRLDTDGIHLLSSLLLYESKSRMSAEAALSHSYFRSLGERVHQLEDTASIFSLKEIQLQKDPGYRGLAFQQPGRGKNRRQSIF

[30] = system: Phosphatidylinositol 4,5-bisphosphate 3-kinase catalytic subunit alpha isoform (Homo sapiens), P42336 [E542K]; conditions: Compound concentration 1000.0 nM
[31] = system: Phosphatidylinositol 4,5-bisphosphate 3-kinase catalytic subunit alpha isoform (Homo sapiens), P42336 [H1047L]; conditions: Compound concentration 1000.0 nM
[32] = biological target: Serine/threonine-protein kinase PLK1 (Homo sapiens) (UniProt P53350); conditions: Compound concentration 1000.0 nM
[33] = biological target: Serine/threonine-protein kinase PLK2 (Homo sapiens) (UniProt Q9NYY3); conditions: Compound concentration 1000.0 nM
[34] = biological target: Serine/threonine-protein kinase PLK4 (Homo sapiens) (UniProt O00444); conditions: Compound concentration 1000.0 nM
[35] = biological target: Interferon-induced, double-stranded RNA-activated protein kinase (Homo sapiens) (UniProt P19525); conditions: Compound concentration 1000.0 nM
[36] = system: Proto-oncogene tyrosine-protein kinase receptor Ret (Homo sapiens), P07949 [V804M]; conditions: Compound concentration 1000.0 nM
[37] = biological target: SNF-related serine/threonine-protein kinase (Homo sapiens) (UniProt Q9NRH2); conditions: Compound concentration 1000.0 nM
Sequence of SNF-related serine/threonine-protein kinase (Homo sapiens) (Q9NRH2 whole entry): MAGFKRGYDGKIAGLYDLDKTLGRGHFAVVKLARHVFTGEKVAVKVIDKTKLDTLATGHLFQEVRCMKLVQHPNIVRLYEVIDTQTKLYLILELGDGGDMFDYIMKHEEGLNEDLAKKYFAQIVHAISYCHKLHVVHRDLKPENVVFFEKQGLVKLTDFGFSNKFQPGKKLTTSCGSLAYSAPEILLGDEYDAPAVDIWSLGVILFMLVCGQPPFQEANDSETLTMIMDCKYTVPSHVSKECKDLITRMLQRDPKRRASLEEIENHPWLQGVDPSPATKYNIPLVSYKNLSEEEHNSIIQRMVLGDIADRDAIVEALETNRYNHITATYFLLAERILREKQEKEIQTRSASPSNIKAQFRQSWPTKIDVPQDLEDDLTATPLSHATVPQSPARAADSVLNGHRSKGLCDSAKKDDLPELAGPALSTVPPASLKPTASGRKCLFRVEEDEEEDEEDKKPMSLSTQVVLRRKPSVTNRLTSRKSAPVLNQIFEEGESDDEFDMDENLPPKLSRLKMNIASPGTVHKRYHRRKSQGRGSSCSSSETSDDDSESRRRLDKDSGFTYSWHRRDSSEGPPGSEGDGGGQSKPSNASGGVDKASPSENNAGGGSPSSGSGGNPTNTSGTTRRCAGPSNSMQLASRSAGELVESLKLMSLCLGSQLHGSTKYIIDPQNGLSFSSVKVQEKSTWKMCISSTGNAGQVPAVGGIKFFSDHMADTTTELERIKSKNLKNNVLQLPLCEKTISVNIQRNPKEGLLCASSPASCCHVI

[38] = biological target: SRSF protein kinase 1 (Homo sapiens) (UniProt Q96SB4); conditions: Compound concentration 1000.0 nM
[39] = biological target: Serine/threonine-protein kinase TAO2 (Homo sapiens) (UniProt Q9UL54); conditions: Compound concentration 1000.0 nM
[40] = biological target: High affinity nerve growth factor receptor (Homo sapiens) (UniProt P04629); conditions: Compound concentration 1000.0 nM
[41] = biological target: Dual specificity protein kinase TTK (Homo sapiens) (UniProt P33981); conditions: Compound concentration 1000.0 nM
[42] = biological target: Tyrosine-protein kinase TXK (Homo sapiens) (UniProt P42681); conditions: Compound concentration 1000.0 nM
[43] = biological target: Serine/threonine-protein kinase 32B (Homo sapiens) (UniProt Q9NY57); conditions: Compound concentration 1000.0 nM
[44] = biological target: Mitogen-activated protein kinase kinase kinase 19 (Homo sapiens) (UniProt Q56UN5); conditions: Compound concentration 1000.0 nM
Sequence of Mitogen-activated protein kinase kinase kinase 19 (Homo sapiens) (Q56UN5 whole entry): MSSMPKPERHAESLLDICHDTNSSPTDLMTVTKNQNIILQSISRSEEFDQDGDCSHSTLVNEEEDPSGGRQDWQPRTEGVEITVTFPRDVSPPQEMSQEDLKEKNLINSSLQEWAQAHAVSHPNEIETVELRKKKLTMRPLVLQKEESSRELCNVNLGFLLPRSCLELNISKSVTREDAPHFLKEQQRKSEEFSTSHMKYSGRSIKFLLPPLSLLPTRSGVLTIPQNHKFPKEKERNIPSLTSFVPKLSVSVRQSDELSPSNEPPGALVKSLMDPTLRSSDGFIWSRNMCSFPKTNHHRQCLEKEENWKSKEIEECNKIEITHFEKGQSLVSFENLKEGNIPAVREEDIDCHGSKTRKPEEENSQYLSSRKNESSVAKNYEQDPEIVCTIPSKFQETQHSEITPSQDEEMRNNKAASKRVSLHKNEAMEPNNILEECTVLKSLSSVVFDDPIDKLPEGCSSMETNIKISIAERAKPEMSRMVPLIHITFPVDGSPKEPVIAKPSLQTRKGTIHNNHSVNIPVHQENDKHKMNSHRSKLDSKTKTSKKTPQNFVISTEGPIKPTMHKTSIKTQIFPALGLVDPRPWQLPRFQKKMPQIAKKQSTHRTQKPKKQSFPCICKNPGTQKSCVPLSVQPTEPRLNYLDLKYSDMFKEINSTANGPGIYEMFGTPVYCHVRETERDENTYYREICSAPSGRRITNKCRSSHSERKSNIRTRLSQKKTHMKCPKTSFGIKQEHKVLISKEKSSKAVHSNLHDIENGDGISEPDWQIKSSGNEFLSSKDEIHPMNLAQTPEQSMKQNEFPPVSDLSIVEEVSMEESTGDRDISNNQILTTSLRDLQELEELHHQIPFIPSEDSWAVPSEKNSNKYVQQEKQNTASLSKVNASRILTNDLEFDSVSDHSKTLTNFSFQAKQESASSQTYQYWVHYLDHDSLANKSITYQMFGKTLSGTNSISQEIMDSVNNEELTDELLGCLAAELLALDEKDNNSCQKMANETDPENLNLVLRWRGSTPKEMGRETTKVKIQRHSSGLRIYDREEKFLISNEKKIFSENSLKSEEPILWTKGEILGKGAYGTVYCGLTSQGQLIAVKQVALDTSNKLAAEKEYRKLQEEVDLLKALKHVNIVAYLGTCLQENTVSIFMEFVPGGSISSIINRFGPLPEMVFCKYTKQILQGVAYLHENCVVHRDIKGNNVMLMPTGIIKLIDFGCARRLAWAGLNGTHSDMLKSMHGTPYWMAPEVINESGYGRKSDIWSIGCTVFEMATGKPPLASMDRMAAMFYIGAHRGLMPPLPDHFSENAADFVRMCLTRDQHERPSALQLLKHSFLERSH

[45] = biological target: Sigma intracellular receptor 2 (Homo sapiens) (UniProt Q5BJF2); conditions: Compound concentration 10.0 uM

Cn1cncc1[C@@](O)(COc1ccc(C#N)cc1-c1ccc(OC(F)(F)F)cc1)c1ccc(C#N)cc1 [A-108]
residual activity [1]: 88%
residual activity [2]: 76%
residual activity [3]: 98%
residual activity [4]: 100%
residual activity [5]: 63%
residual activity [6]: 96%
residual activity [7]: 84%
residual activity [8]: 64%
residual activity [9]: 100%
residual activity [10]: 89%
residual activity [11]: 12%
residual activity [12]: 100%
residual activity [13]: 78%
residual activity [14]: 91%
residual activity [15]: 100%
residual activity [16]: 97%
residual activity [17]: 100%
residual activity [18]: 90%
residual activity [19]: 100%
residual activity [20]: 91%
residual activity [21]: 80%
residual activity [22]: 100%
residual activity [23]: 100%
residual activity [24]: 98%
residual activity [25]: 100%
residual activity [26]: 55%
residual activity [27]: 87%
residual activity [28]: 75%
residual activity [29]: 100%
residual activity [30]: 81%
residual activity [31]: 100%
residual activity [32]: 83%
residual activity [33]: 86%
residual activity [34]: 84%
residual activity [35]: 100%
residual activity [36]: 98%
residual activity [37]: 87%
residual activity [38]: 97%
residual activity [39]: 98%
residual activity [40]: 91%
residual activity [41]: 100%
residual activity [42]: 85%
residual activity [43]: 97%
residual activity [44]: 100%
inhibition [45]: 37.8%

Cn1cncc1[C@](O)(COc1ccc(C#N)cc1-c1ccc(OC(F)(F)F)cc1)c1ccc(C#N)cc1 [ABT-100]
residual activity [1]: 91%
residual activity [2]: 96%
residual activity [3]: 100%
residual activity [4]: 84%
residual activity [5]: 95%
residual activity [6]: 94%
residual activity [7]: 64%
residual activity [8]: 78%
residual activity [9]: 100%
residual activity [10]: 62%
residual activity [11]: 100%
residual activity [12]: 95%
residual activity [13]: 95%
residual activity [14]: 97%
residual activity [15]: 93%
residual activity [16]: 100%
residual activity [17]: 68%
residual activity [18]: 95%
residual activity [19]: 89%
residual activity [20]: 92%
residual activity [21]: 90%
residual activity [22]: 100%
residual activity [23]: 100%
residual activity [24]: 81%
residual activity [25]: 57%
residual activity [26]: 71%
residual activity [27]: 65%
residual activity [28]: 100%
residual activity [29]: 90%
residual activity [30]: 80%
residual activity [31]: 100%
residual activity [32]: 77%
residual activity [33]: 94%
residual activity [34]: 94%
residual activity [35]: 100%
residual activity [36]: 99%
residual activity [37]: 100%
residual activity [38]: 70%
residual activity [39]: 98%
residual activity [40]: 91%
residual activity [41]: 100%
residual activity [42]: 87%
residual activity [43]: 100%
residual activity [44]: 63%
inhibition [45]: 40.3%
